We go through one molecule from US12653811B2 (CLOSED LOOP MEDICINE LTD, priority 2020, dated 2026).

In data set [1] the test system is patients with primary hypertension and inadequate BP control. The data set is described as follows: Precision dosing trial of amlodipine with home blood pressure and e-diary side effects (Example 1).
The conditions of data set [2]: cited from earlier work.

As to `CCOC(=O)C1=C(COCCN)NC(C)=C(C(=O)OC)C1c1ccccc1Cl` (stereo not shown) [amlodipine], in data set [1] (during the trial to date), the “toxic related side effects leading to treatment discontinuation” value is “no toxic related side effects leading to treatment discontinuation were observed”. Further, the “end mean DBP” value in data set [1] (end of study, baseline mean DBP 88 mmHg, 109 patients begun, 39 completed, linear mixed model estimate) was 81 mmHg. Further, the “end mean SBP” value in data set [1] (end of study, baseline mean SBP 146 mmHg, 109 patients begun, 39 completed, linear mixed model estimate) is recorded as 133 mmHg. In data set [1] (single patient, final dose of 10 mg, VAS 0-100 scale (1-25 mild, 26-50 moderate)), the “side effects (oedema) by VAS score” value is given as “mild to moderate”. Further, the “dose linearity of pharmacokinetics” value in data set [2] (FIG. 1, Williams et al 1988) is given as “linear across a wide range of doses”. Also, in data set [2] (elderly), the “increase in total exposure” value is on record as “up to 60%”. Further, the “variance in average amlodipine blood levels between subjects” value in data set [2] (steady-state, same dose) is listed as “up to 30%”.
